Reference: paper PMC4472624, “Pharmacokinetics of daptomycin in patients undergoing low-flow continuous venovenous hemodiafiltration” (Critical Care, 2015)
Read-outs that look alike come from different tables or passages of the source.

Assays:
[1] = cited from earlier work
Description: In Japan, CVVHDF is preferentially performed with lower flow rates. Investigating effects of flow rate on DAP removal during co ...

[2] = Pharmacokinetics of daptomycin in patients undergoing low-flow CVVHDF; type: in vivo, human; settings: 6 mg/kg i.v. every 48 hours, HPLC; for AUC / half-life: 6 mg/kg; for AUC: read-out: area under the concentration-time curve (AUC); for half-life: read-out: elimination half-life (t1/2) (converted)
Description: DAP (6 mg/kg) was administered intravenously every 48 hours to CVVHDF patients in the ICU. Blood and filtrate samples were collected at 0, 1, 1.5, 2, 5, 12, 24, and 48 hours after infusion. All collected samples were analyzed using HPLC according to the method of Tobin et al.. Maximum concentration (Cmax), elimination half-life (t1/2), area AUC, Cmin, volume of distribution (Vd), clearance (CL), fraction unbound, and sieving coefficient (Sc) were evaluated. Patient characteristics and CVVHDF parameters including blood, dialysate, and filtration flow rates were recorded.

[3] = low-flow CVVHDF, blood and filtrate samples, mean of three patients
[4] = human, blood, iv, low-flow CVVHDF, single patient, first listed
[5] = human, blood, iv, low-flow CVVHDF, single patient, second listed
[6] = human, blood, iv, low-flow CVVHDF, single patient, third listed

SMILES: CCCCCCCCCC(=O)N[C@@H](Cc1c[nH]c2ccccc12)C(=O)N[C@H](CC(N)=O)C(=O)N[C@@H](CC(=O)O)C(=O)N[C@@H]1C(=O)NCC(=O)N[C@@H](CCCN)C(=O)N[C@@H](CC(=O)O)C(=O)N[C@H](C)C(=O)N[C@@H](CC(=O)O)C(=O)NCC(=O)N[C@H](CO)C(=O)N[C@@H]([C@H](C)CC(=O)O)C(=O)N[C@@H](CC(=O)c2ccccc2N)C(=O)O[C@@H]1C [DAP, daptomycin]
- AUC/MIC required to obtain clinical success [1]: 1,061 mg hour/l
- trough serum concentration (Cmin) ([2]; low-flow CVVHDF, single patient, first listed): 2300 ng/mL
- trough serum concentration (Cmin) ([2]; low-flow CVVHDF, single patient, second listed): 24700 ng/mL
- trough serum concentration (Cmin) ([2]; low-flow CVVHDF, single patient, third listed): 14000 ng/mL
- CL of dialyzer [2, 3]: 1.20 ± 0.39 mL/min
- sieving coefficient (Sc) [2, 3]: 0.08 ± 0.03
- CL of dialyzer ([2]; low-flow CVVHDF, blood and filtrate samples, single patient, first listed): 1.70 mL/min
- CL of dialyzer ([2]; low-flow CVVHDF, blood and filtrate samples, single patient, second listed): 0.88 mL/min
- CL of dialyzer ([2]; low-flow CVVHDF, blood and filtrate samples, single patient, third listed): 0.96 mL/min
- AUC [2, 4]: 471 µg·h/mL
- half-life [2, 4]: 18.6 h
- AUC [2, 5]: 967 µg·h/mL
- half-life [2, 5]: 11.5 h
- AUC [2, 6]: 1260 µg·h/mL
- half-life [2, 6]: 70.5 h
- fraction unbound ([2]; human, blood, iv, ICU patients on low-flow CVVHDF, mean of three patients): 0.058
- clearance ([2]; human, blood, iv, ICU patients on low-flow CVVHDF, mean of three patients, read-out: clearance (CL)): 9.47 ± 4.56 mL/min
- Vd ([2]; human, blood, iv, ICU patients on low-flow CVVHDF, mean of three patients, read-out: volume of distribution (Vd)): 26 ± 20.9 L
- Cmax ([2]; human, iv, ICU patients on low-flow CVVHDF, blood samples 0-48 hours, mean of three patients, read-out: Maximum concentration (Cmax)): 50100 ± 12700 ng/mL
